Read-outs that look alike come from different tables or passages of the source.
Columns and labels:
Type in all cases: cell-based
Pst. micros UPI 5464-1 = assay: Antibacterial spectra, MIC; conditions: Parvimonas micra, UPI54641
[1] = system: Eubacterium lentum GAI 5242; assay: Antibacterial spectra, MIC; conditions: Eggerthella lenta, GAI5242
[2] = system: Serratia marcescens IID 618; assay: Antibacterial spectra, MIC; conditions: IID618
B. fragilis 25285 = assay: Antibacterial spectra, MIC; conditions: Bacteroides fragilis
C. ramosum = assay: Antibacterial spectra, MIC; conditions: Thomasclavelia ramosa
[3] = system: Bacteroides fragilis GM 7000; assay: Antibacterial spectra, MIC; conditions: GM7000
[4] = system: Morganella morganii IID 602; assay: Antibacterial spectra, MIC; conditions: IID602
[5] = system: Pseudomonas aeruginosa V-1; assay: Antibacterial spectra, MIC; conditions: V1
[6] = system: Peptococcus magnus KY 017; assay: Antibacterial spectra, MIC; conditions: Finegoldia magna, KY017
F. varium KYA 8501 = assay: Antibacterial spectra, MIC; conditions: Fusobacterium varium, KYA8501; 10^6 cells/ml; Gram -; read-out: MIC
E. coli ATCC 10536 = assay: Antibacterial spectra, MIC; conditions: Escherichia coli, ATCC10536
P. mirabilis IID 994 = assay: Antibacterial spectra, MIC; conditions: Proteus mirabilis, IID994
P. maltophilia GIFU 2491 = assay: Antibacterial spectra, MIC; conditions: Stenotrophomonas maltophilia, GIFU2491
K. pneumoniae 1-220S = assay: Antibacterial spectra, MIC; conditions: Klebsiella pneumoniae, 1220S
[7] = system: Clostridium difficile I-E; assay: Antibacterial spectra, MIC; conditions: Clostridioides difficile
F. necrophorum S-45 = assay: Antibacterial spectra, MIC; conditions: Fusobacterium necrophorum, S45
P. aeruginosa IFO 12689 = assay: Antibacterial spectra, MIC; conditions: Pseudomonas aeruginosa, IFO12689
[8] = system: Staphylococcus aureus 209 P; assay: Antibacterial spectra, MIC
P. cepacia GIFU 518 = assay: Antibacterial spectra, MIC; conditions: Burkholderia cepacia, GIFU518
[9] = system: Streptococcus pyogenes (S-8); assay: Antibacterial spectra, MIC; conditions: 10^6 cells/ml, Gram +
Description: (§1) The antibacterial test was carried out according to the method designated by Japan Society of Chemotherapy.

[10] = system: Proteus vulgaris IFO 3167; assay: Antibacterial spectra, MIC; conditions: IFO3167, 10^6 cells/ml, Gram -
Description: as §1

E. coli ML 4707 = assay: Antibacterial spectra, MIC; conditions: Escherichia coli, ML4707; 10^6 cells/ml; Gram -
Description: as §1

E. faecalis IID 682 = assay: Antibacterial spectra, MIC; conditions: Enterococcus faecalis, IID682; 10^6 cells/ml; Gram +
Description: as §1

Shigella sonnei IID 969 = assay: Antibacterial spectra, MIC; conditions: IID969, 10^6 cells/ml, Gram -
Description: as §1

[11] = system: Yersinia enterocolitica IID 981; assay: Antibacterial spectra, MIC; conditions: IID981
[12] = system: Enterobacter cloacae IID 977; assay: Antibacterial spectra, MIC; conditions: IID977
[13] = system: Alcaligenes faecalis 0114002; assay: Antibacterial spectra, MIC
S. pneumoniae IID 552 = assay: Antibacterial spectra, MIC; conditions: Streptococcus pneumoniae, IID552
Bacilus subtilis PCI 219 = assay: Antibacterial spectra, MIC; conditions: Bacillus subtilis, PCI219
[14] = system: Fusobacterium mortiferum 4249; assay: Antibacterial spectra, MIC
[15] = system: Klebsiella pneumoniae KY(GN)6445; assay: Antibacterial spectra, MIC
[16] = system: Peptostreptococcus anaerobius KYA 27337; assay: Antibacterial spectra, MIC; conditions: KYA27337
S. pyogenes IID 692 = assay: Antibacterial spectra, MIC; conditions: Streptococcus pyogenes, IID692
S. aureus Smith = assay: Antibacterial spectra, MIC; conditions: Staphylococcus aureus
[17] = system: Escherichia coli NIHJ JC-2; assay: Antibacterial spectra, MIC; conditions: NIHJJC2
[18] = system: B. thetaiotaomicron (0661); assay: Antibacterial spectra, MIC; conditions: Bacteroides thetaiotaomicron
S. epidermidis IID 866 = assay: Antibacterial spectra, MIC; conditions: Staphylococcus epidermidis, IID866
[19] = system: Salmonella enteritidis IID 604; assay: Antibacterial spectra, MIC; conditions: Salmonella enterica
P. aeruginosa IID 1210 = assay: Antibacterial spectra, MIC; conditions: Pseudomonas aeruginosa, IID1210
B. vulgatus KYA 29327 = assay: Antibacterial spectra, MIC; conditions: Phocaeicola vulgatus, KYA29327
[20] = system: Veillonella parvula KYA 10790; assay: Antibacterial spectra, MIC; conditions: KYA10790
B. fragilis 0558 = assay: Antibacterial spectra, MIC; conditions: Bacteroides fragilis
[21] = system: Citrobacter freundii IID 976; assay: Antibacterial spectra, MIC; conditions: IID976
[22] = system: Acinetobacter anitratus IID 876; assay: Antibacterial spectra, MIC; conditions: Acinetobacter calcoaceticus, IID876
B. distasonis 8503 = assay: Antibacterial spectra, MIC; conditions: Parabacteroides distasonis
[23] = system: S. aureus IID 670 (Terajima); assay: Antibacterial spectra, MIC; conditions: Staphylococcus aureus, IID670
[24] = system: Propionibacterium acens 11828; assay: Antibacterial spectra, MIC
C. perfringens KYA 13123 = assay: microbe, parasite or virus in culture; conditions: Clostridium perfringens, KYA13123

Measured: MIC

COc1c(N2C[C@@H](N)[C@@H](C)C2)c(F)cc2c(=O)c(C(=O)O)cn(C3CC3)c12 (relative stereo) [Exp. 5, 7-(cis-3-amino-4-methyl-1-pyrrolidinyl)-1-cyclopropyl-6-fluoro-1,4-dihydro-8-methoxy-4-oxo-3-quinolinecarboxylic acid]
0.025 µg/mL: [8] | [10] | E. coli ML 4707 | Shigella sonnei IID 969 | [15]
0.1 µg/mL: B. fragilis 25285 | [3] | [6] | P. maltophilia GIFU 2491 | [9] | E. faecalis IID 682 | S. pneumoniae IID 552 | S. pyogenes IID 692 | [18] | S. epidermidis IID 866 | B. fragilis 0558
≤ 0.05 µg/mL: [1]
0.2 µg/mL: Pst. micros UPI 5464-1 | F. necrophorum S-45 | [13] | [14] | [16] | B. vulgatus KYA 29327 | [20]
0.0125 µg/mL: E. coli ATCC 10536 | Bacilus subtilis PCI 219 | [17]
0.39 µg/mL: [7] | B. distasonis 8503
1.56 µg/mL: F. varium KYA 8501 | [24]; 10^6 cells/ml, Gram +, read-out: MIC
0.78 µg/mL: C. ramosum | [5] | P. aeruginosa IFO 12689 | P. cepacia GIFU 518 | P. aeruginosa IID 1210
0.05 µg/mL: [2] | [4] | P. mirabilis IID 994 | K. pneumoniae 1-220S | [11] | [12] | S. aureus Smith | [19] | [21] | [22] | [23]

COc1c(N2C[C@@H](C)[C@H](N)C2)c(F)cc2c(=O)c(C(=O)O)cn(C3CC3)c12 (relative stereo) [Exp. 6, 7-(trans-3-amino-4-methyl-1-pyrrolidinyl)-1-cyclopropyl-6-fluoro-1,4-dihydro-8-methoxy-4-oxo-3-quinolinecarboxylic acid]
0.78 µg/mL: C. ramosum | [5] | [7] | P. aeruginosa IFO 12689 | P. aeruginosa IID 1210
0.025 µg/mL: [8]
0.05 µg/mL: [2] | P. mirabilis IID 994 | P. maltophilia GIFU 2491 | K. pneumoniae 1-220S | [9] | [10] | [11] | [12] | [15] | S. aureus Smith | [19] | [21] | [22] | [23]
1.56 µg/mL: F. varium KYA 8501
0.39 µg/mL: P. cepacia GIFU 518 | B. distasonis 8503
3.13 µg/mL: [24]
0.1 µg/mL: B. fragilis 25285 | [3] | [4] | E. faecalis IID 682 | S. pneumoniae IID 552 | [16] | S. pyogenes IID 692 | S. epidermidis IID 866 | B. fragilis 0558
0.2 µg/mL: Pst. micros UPI 5464-1 | F. necrophorum S-45 | [13] | [14] | [18] | B. vulgatus KYA 29327 | C. perfringens KYA 13123 | [20]
0.0125 µg/mL: E. coli ATCC 10536 | E. coli ML 4707 | Shigella sonnei IID 969 | Bacilus subtilis PCI 219 | [17]
≤ 0.05 µg/mL: [1] | [6]

Reference: US5043450A, “8-alkoxyquinolonecarboxylic acid and salts thereof” (priority 1986, dated 1991)
